Data on 2 molecules can be found in US8906925B2, “Pyrido[4,3-B]indoles containing rigid moieties” (Medivation Technologies, Inc., priority 2008, dated 2014).

Structures are written as SMILES.

The test system of one assay is C57Bl/6J mice. Briefly: Elevated plus maze (EPM) test. The format is in vivo, mouse. The following applies: 0.03, 0.1, and 1 mg/kg, oral. The text has this: This study aimed to test the anxiolytic properties of Compound No. 90 using the elevated plus maze (EPM) test in C57Bl/6J mice.
Male C57Bl/6J mice from Jackson Laboratories (Bar Harbor, Me.) were used for the […]. Mice were received at 6-weeks of age. Upon receipt, mice were assigned unique identification numbers (tail marked) and were group housed with 4 mice/cage in OPTI mouse ventilated cages. All animals remained housed in groups of four during the remainder of the study. All mice were acclimated to the colony room for approximately 2 week prior to testing and were subsequently tested at an average age of 8 weeks of age. During the period of acclimation, mice and rats were examined on a regular basis, handled, and weighed to assure adequate health and suitability. Animals were maintained on a 12 h/12 h light/dark cycle. The room temperature was maintained between 20 and 23° C. with a relative humidity maintained between 30% and 70%. Chow and water were provided ad libitum for the duration of the study. In each test, animals were randomly assigned across treatment groups. […]
The elevated plus maze test assessed anxiety. […] The time spent, distance traveled and entries in each arm were automatically recorded by the computer. […]
Data were analyzed using analysis of variance (ANOVA) followed by Fisher's LSD post hoc analysis when appropriate. […]

The target of assay [1] is human dopamine D2L receptor (Homo sapiens, UniProt P14416). Briefly: Dopamine D2L [35S]GTPγS functional assay (SPA, CHO membranes). The format is biochemical. Particulars: read-out: D2L GTPgS % Inhibition. On the procedure: To determine for agonist or antagonist activity of compounds of the invention in functional assays, human recombinant dopamine D2L receptor stably expressed in Chinese hamster ovary (CHO) cells (Senogles S E et al. J Biol Chem. 265(8): 4507, 1990) was used. Compounds of invention were pre-incubated with the membranes (0.1 mg/mL) and 10 mM GDP in modified HEPES buffer (20 mM HEPES, pH 7.4, 100 mM NaCl, 10 mM MgCl2, 1 mM DTT, 1 mM EDTA) for 20 min. and Scintillation Proximity Assay (SPA) beads were added for another 60 min. at 30° C. The reaction was initiated by 0.3 nM [^35S]GTPγS for an additional 15 min. incubation period. […] Compounds were screened at […] or lower, using 0.4% DMSO as vehicle. Assay results are presented as the percent response of specific binding in Table 12.
(GTPγS is a poorly hydrolysed GTP analogue; its binding reports G protein activation.)

The next assay deals with mice (e.g., C57Bl/6J). Briefly: Amphetamine-induced hyperactivity, open field test. The format is in vivo, mouse. The following applies: amphetamine (4 mg/kg), 90 min. test. On the procedure: Male mice (various strains e.g., C57Bl/6J) from appropriate supplier (for example Jackson Laboratories, Bar Harbor, Me.) were used. Mice typically were received at 6-weeks of age. Mice were acclimated to the colony room for at least two weeks prior to testing. During the period of acclimation, mice were examined on a regular basis, handled, and weighed to assure adequate health and suitability and maintained on a 12 h/12 h light/dark cycle. The room temperature was maintained between 20 and 23° C. with a relative humidity maintained between 30% and 70%. Food and water were provided ad libitum for the duration of the study. In each test, animals were randomly assigned between treatment groups.
The open field test (OF) was used to assess motor activity. […] Horizontal activity (distance traveled) and vertical activity (rearing) were measured from consecutive beam breaks.
On the day of testing, animals were brought to the experimental room for at least 1 h acclimation prior to start of treatment. […] The time of administration of test compound to each animal was recorded. Baseline activity was recorded for […]. following which mice received amphetamine (4 mg/kg) or water and were placed back in the OF chambers for a 60-min. session. […]
Data were analyzed by analysis of variance (ANOVA) followed by post-hoc comparisons with Fisher Tests when appropriate. […]

human dopamine D2L receptor, sequence (P14416 whole entry): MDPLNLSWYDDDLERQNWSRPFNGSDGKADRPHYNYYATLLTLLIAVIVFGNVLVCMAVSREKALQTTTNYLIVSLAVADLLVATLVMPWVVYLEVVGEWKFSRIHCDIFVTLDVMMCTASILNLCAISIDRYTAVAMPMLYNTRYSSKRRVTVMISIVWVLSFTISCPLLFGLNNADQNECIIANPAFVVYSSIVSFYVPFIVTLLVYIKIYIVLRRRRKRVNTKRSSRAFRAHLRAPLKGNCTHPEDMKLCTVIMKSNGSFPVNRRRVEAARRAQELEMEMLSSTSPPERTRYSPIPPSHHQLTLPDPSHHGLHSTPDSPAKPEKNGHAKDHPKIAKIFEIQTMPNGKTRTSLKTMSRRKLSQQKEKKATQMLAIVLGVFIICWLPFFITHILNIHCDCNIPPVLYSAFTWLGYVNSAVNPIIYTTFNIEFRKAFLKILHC

`C/C(=C\n1c2c(c3cc(Cl)ccc31)CN(C)CC2)c1ccncc1` [Compound 90, (E)-8-chloro-2,3,4,5-tetrahydro-2-methyl-5-(2-(pyridin-4-yl)prop-1-enyl)-1H-pyrido[4,3-b]indole]: in the assay with C57Bl/6J mice, the “anxiolytic-like effect in the EPM test compared to vehicle” value is given as “did not exert any anxiolytic-like effect”.

A word on the inhibition: it is the share of the control response that was lost under treatment. Consider `C/C(=C\n1c2c(c3cc(Cl)ccc31)CN(C)CC2)c1ccc(F)cc1` [Compound 83, (E)-8-chloro-5-(2-(4-fluorophenyl)prop-1-enyl)-2,3,4,5-tetrahydro-2-methyl-1H-pyrido[4,3-b]indole], for which the inhibition at 0.001 µM in assay [1] (conc. 1 nM) came out at 16%. Further, in assay [1] (conc. 3 nM), the inhibition at 0.003 µM was 28%. Moreover, in assay [1] (conc. 10 nM), the inhibition at 0.01 µM worked out at 49%. Moreover, the inhibition at 0.03 µM in assay [1] (conc. 30 nM) amounted to 55%. Further, in assay [1] (conc. 100 nM), the inhibition at 0.1 µM came to 77%. Further, in the assay on mice (e.g., C57Bl/6J), the “Total Distance Traveled (center+periphery), ANOVA” value is recorded as “significant treatment effect” and the “Total Rearing (center+periphery), ANOVA” value was “significant treatment effect”.
